{"source": "the NIST ThermoML archive (doi:10.1021/acs.jced.5b00549)", "assay": "mn = molality of the nth substance listed, in mol/kg", "conditions": "100 kPa, Liquid; for speed of sound: Frequency=3 MHz, Sing-around technique in a fixed-path interferometer; for mass density: Vibrating tube method; for viscosity: Capillary tube (Ostwald / Ubbelohde) method", "note": "Numbers after ± are expanded uncertainties.", "data": [{"molecule": "NC(=O)CC[C@H](N)C(=O)O", "note": "[L-glutamine] + O", "values": [{"measurement": "speed of sound", "setting": "303.15 K, m1 = 0.12", "result": "1517.7 ± 0.88", "unit": "m/s"}, {"measurement": "speed of sound", "setting": "303.15 K, m1 = 0.14", "result": "1519.4 ± 0.88", "unit": "m/s"}, {"measurement": "speed of sound", "setting": "303.15 K, m1 = 0.16", "result": "1521 ± 0.88", "unit": "m/s"}, {"measurement": "speed of sound", "setting": "303.15 K, m1 = 0.18", "result": "1522.7 ± 0.89", "unit": "m/s"}, {"measurement": "speed of sound", "setting": "303.15 K, m1 = 0.2", "result": "1524.5 ± 0.86", "unit": "m/s"}, {"measurement": "mass density", "setting": "303.15 K, m1 = 0.02", "result": "996.679 ± 0.28", "unit": "kg/m3"}, {"measurement": "mass density", "setting": "303.15 K, m1 = 0.04", "result": "997.722 ± 0.27", "unit": "kg/m3"}, {"measurement": "mass density", "setting": "303.15 K, m1 = 0.06", "result": "998.771 ± 0.27", "unit": "kg/m3"}, {"measurement": "mass density", "setting": "303.15 K, m1 = 0.08", "result": "999.819 ± 0.27", "unit": "kg/m3"}, {"measurement": "mass density", "setting": "303.15 K, m1 = 0.1", "result": "1000.87 ± 0.27", "unit": "kg/m3"}, {"measurement": "mass density", "setting": "303.15 K, m1 = 0.12", "result": "1001.92 ± 0.27", "unit": "kg/m3"}, {"measurement": "mass density", "setting": "303.15 K, m1 = 0.14", "result": "1002.97 ± 0.27", "unit": "kg/m3"}, {"measurement": "mass density", "setting": "303.15 K, m1 = 0.16", "result": "1004.02 ± 0.27", "unit": "kg/m3"}, {"measurement": "mass density", "setting": "303.15 K, m1 = 0.18", "result": "1005.09 ± 0.27", "unit": "kg/m3"}, {"measurement": "mass density", "setting": "303.15 K, m1 = 0.2", "result": "1006.14 ± 0.26", "unit": "kg/m3"}, {"measurement": "viscosity", "setting": "308.15 K, m1 = 0.02", "result": "0.7243 ± 0.021", "unit": "mPa·s"}, {"measurement": "viscosity", "setting": "308.15 K, m1 = 0.04", "result": "0.7275 ± 0.021", "unit": "mPa·s"}, {"measurement": "viscosity", "setting": "308.15 K, m1 = 0.06", "result": "0.7302 ± 0.021", "unit": "mPa·s"}, {"measurement": "viscosity", "setting": "308.15 K, m1 = 0.08", "result": "0.7329 ± 0.021", "unit": "mPa·s"}, {"measurement": "viscosity", "setting": "308.15 K, m1 = 0.1", "result": "0.7352 ± 0.021", "unit": "mPa·s"}, {"measurement": "viscosity", "setting": "308.15 K, m1 = 0.12", "result": "0.7379 ± 0.021", "unit": "mPa·s"}, {"measurement": "viscosity", "setting": "308.15 K, m1 = 0.14", "result": "0.7405 ± 0.021", "unit": "mPa·s"}, {"measurement": "viscosity", "setting": "308.15 K, m1 = 0.16", "result": "0.7425 ± 0.021", "unit": "mPa·s"}, {"measurement": "viscosity", "setting": "308.15 K, m1 = 0.18", "result": "0.7448 ± 0.021", "unit": "mPa·s"}, {"measurement": "viscosity", "setting": "308.15 K, m1 = 0.2", "result": "0.7469 ± 0.021", "unit": "mPa·s"}, {"measurement": "speed of sound", "setting": "308.15 K, m1 = 0.02", "result": "1520.9 ± 0.89", "unit": "m/s"}, {"measurement": "speed of sound", "setting": "308.15 K, m1 = 0.04", "result": "1522.2 ± 0.86", "unit": "m/s"}, {"measurement": "speed of sound", "setting": "308.15 K, m1 = 0.06", "result": "1523.6 ± 0.86", "unit": "m/s"}, {"measurement": "speed of sound", "setting": "308.15 K, m1 = 0.08", "result": "1525 ± 0.87", "unit": "m/s"}, {"measurement": "speed of sound", "setting": "308.15 K, m1 = 0.1", "result": "1526.5 ± 0.88", "unit": "m/s"}, {"measurement": "speed of sound", "setting": "308.15 K, m1 = 0.12", "result": "1528.1 ± 0.88", "unit": "m/s"}, {"measurement": "speed of sound", "setting": "308.15 K, m1 = 0.14", "result": "1529.8 ± 0.88", "unit": "m/s"}, {"measurement": "speed of sound", "setting": "308.15 K, m1 = 0.16", "result": "1531.4 ± 0.89", "unit": "m/s"}, {"measurement": "speed of sound", "setting": "308.15 K, m1 = 0.18", "result": "1533.1 ± 0.89", "unit": "m/s"}, {"measurement": "speed of sound", "setting": "308.15 K, m1 = 0.2", "result": "1534.8 ± 0.86", "unit": "m/s"}, {"measurement": "mass density", "setting": "308.15 K, m1 = 0.02", "result": "995.051 ± 0.28", "unit": "kg/m3"}, {"measurement": "mass density", "setting": "308.15 K, m1 = 0.04", "result": "996.088 ± 0.27", "unit": "kg/m3"}, {"measurement": "mass density", "setting": "308.15 K, m1 = 0.06", "result": "997.129 ± 0.27", "unit": "kg/m3"}, {"measurement": "mass density", "setting": "308.15 K, m1 = 0.08", "result": "998.171 ± 0.27", "unit": "kg/m3"}, {"measurement": "mass density", "setting": "308.15 K, m1 = 0.1", "result": "999.218 ± 0.27", "unit": "kg/m3"}, {"measurement": "mass density", "setting": "308.15 K, m1 = 0.12", "result": "1000.26 ± 0.27", "unit": "kg/m3"}, {"measurement": "mass density", "setting": "308.15 K, m1 = 0.14", "result": "1001.31 ± 0.27", "unit": "kg/m3"}, {"measurement": "mass density", "setting": "308.15 K, m1 = 0.16", "result": "1002.36 ± 0.27", "unit": "kg/m3"}, {"measurement": "mass density", "setting": "308.15 K, m1 = 0.18", "result": "1003.41 ± 0.27", "unit": "kg/m3"}, {"measurement": "mass density", "setting": "308.15 K, m1 = 0.2", "result": "1004.48 ± 0.26", "unit": "kg/m3"}, {"measurement": "viscosity", "setting": "313.15 K, m1 = 0.02", "result": "0.6569 ± 0.02", "unit": "mPa·s"}, {"measurement": "viscosity", "setting": "313.15 K, m1 = 0.04", "result": "0.6595 ± 0.02", "unit": "mPa·s"}, {"measurement": "viscosity", "setting": "313.15 K, m1 = 0.06", "result": "0.6621 ± 0.02", "unit": "mPa·s"}, {"measurement": "viscosity", "setting": "313.15 K, m1 = 0.08", "result": "0.6638 ± 0.02", "unit": "mPa·s"}, {"measurement": "viscosity", "setting": "313.15 K, m1 = 0.1", "result": "0.666 ± 0.02", "unit": "mPa·s"}, {"measurement": "viscosity", "setting": "313.15 K, m1 = 0.12", "result": "0.6682 ± 0.02", "unit": "mPa·s"}, {"measurement": "viscosity", "setting": "313.15 K, m1 = 0.14", "result": "0.6702 ± 0.02", "unit": "mPa·s"}, {"measurement": "viscosity", "setting": "313.15 K, m1 = 0.16", "result": "0.6716 ± 0.02", "unit": "mPa·s"}, {"measurement": "viscosity", "setting": "313.15 K, m1 = 0.18", "result": "0.674 ± 0.02", "unit": "mPa·s"}, {"measurement": "viscosity", "setting": "313.15 K, m1 = 0.2", "result": "0.6759 ± 0.02", "unit": "mPa·s"}, {"measurement": "speed of sound", "setting": "313.15 K, m1 = 0.02", "result": "1530 ± 0.86", "unit": "m/s"}, {"measurement": "speed of sound", "setting": "313.15 K, m1 = 0.04", "result": "1531.3 ± 0.86", "unit": "m/s"}, {"measurement": "speed of sound", "setting": "313.15 K, m1 = 0.06", "result": "1532.6 ± 0.86", "unit": "m/s"}, {"measurement": "speed of sound", "setting": "313.15 K, m1 = 0.08", "result": "1534 ± 0.87", "unit": "m/s"}, {"measurement": "speed of sound", "setting": "313.15 K, m1 = 0.1", "result": "1535.5 ± 0.88", "unit": "m/s"}, {"measurement": "speed of sound", "setting": "313.15 K, m1 = 0.12", "result": "1537.1 ± 0.88", "unit": "m/s"}, {"measurement": "speed of sound", "setting": "313.15 K, m1 = 0.14", "result": "1538.6 ± 0.88", "unit": "m/s"}, {"measurement": "speed of sound", "setting": "313.15 K, m1 = 0.16", "result": "1540.3 ± 0.89", "unit": "m/s"}, {"measurement": "speed of sound", "setting": "313.15 K, m1 = 0.18", "result": "1542 ± 0.89", "unit": "m/s"}, {"measurement": "speed of sound", "setting": "313.15 K, m1 = 0.2", "result": "1543.7 ± 0.89", "unit": "m/s"}, {"measurement": "mass density", "setting": "313.15 K, m1 = 0.02", "result": "993.226 ± 0.26", "unit": "kg/m3"}, {"measurement": "mass density", "setting": "313.15 K, m1 = 0.04", "result": "994.257 ± 0.26", "unit": "kg/m3"}, {"measurement": "mass density", "setting": "313.15 K, m1 = 0.06", "result": "995.294 ± 0.27", "unit": "kg/m3"}, {"measurement": "mass density", "setting": "313.15 K, m1 = 0.08", "result": "996.332 ± 0.27", "unit": "kg/m3"}, {"measurement": "mass density", "setting": "313.15 K, m1 = 0.1", "result": "997.372 ± 0.27", "unit": "kg/m3"}, {"measurement": "mass density", "setting": "313.15 K, m1 = 0.12", "result": "998.413 ± 0.27", "unit": "kg/m3"}, {"measurement": "mass density", "setting": "313.15 K, m1 = 0.14", "result": "999.457 ± 0.27", "unit": "kg/m3"}, {"measurement": "mass density", "setting": "313.15 K, m1 = 0.16", "result": "1000.5 ± 0.27", "unit": "kg/m3"}, {"measurement": "mass density", "setting": "313.15 K, m1 = 0.18", "result": "1001.56 ± 0.27", "unit": "kg/m3"}, {"measurement": "mass density", "setting": "313.15 K, m1 = 0.2", "result": "1002.6 ± 0.27", "unit": "kg/m3"}]}]}
